Test results from patent US12351651B2, “Polypeptide for repairing mucosal damage or skin wound and use thereof” (Sichuan Gooddoctor Panxi Pharmaceutical Co., Ltd., priority 2020, dated 2025).
Values joined by “and” are separate entries in the source; they are usually repeats but may differ in a detail not shown here. Equal entries are not always repeated. Marks after values point to notes of the source that are not given here. No end group written: not given here.

What was measured:
[1] = test system: ethanol-induced gastric ulcer model in mice; test: Anti-ulcer activity of single administration in ethanol-induced model in mice; assay type: in vivo, C57BL/6 mice; details: single administration by gavage, 0.2 mg/kg, 1 h before absolute ethanol; relative to compound of SEQ ID NO: 1
Procedure: 1. Experimental animal: SPF grade C57BL/6 mice, from Chengdu Yaokang Shengwu Keji Youxian Gongsi, animal license number: SCXK (Chuan) 2020-034.
After adaptive feeding, all the animals were fasted for 24 h with free access to water after administration one day before the experiment. Before modeling, the experimental mice were randomly divided into groups: blank group (5 mice), model group (10 mice), and treatment groups (10 mice per group). Except for the blank group and the model group, which were given sterile water by gavage, the treatment groups were administered with different test compounds by gavage at a dose of 0.2 mg/kg, respectively. One hour after administration, the mice received 0.9 ml/kg absolute ethanol by oral gavage for modeling. After 1 h, the animals were sacrificed by cervical dislocation, the gastric cardia was ligated, the pylorus was occluded, and the whole stomach was removed. 1 mL of 1% formaldehyde solution was injected into the gastric lumen, the cardia was ligated, and the stomach was taken out and immediately immersed in 1% formaldehyde solution. After 30 min, the stomach tissue was taken out and cut open along the greater curvature. The content of the stomach was rinsed off with normal saline, the injury of gastric mucosa in mice were observed and measured after being laid flat, and the ulcer index and ulcer inhibition rate were calculated.
Calculation method for ulcer index: If the length of cord-like injury was greater than 1 mm, the length thereof was measured, with 1 point per millimeter; if the width thereof was greater than 1 mm, the score thereof was doubled according to the number of millimeters of the width; and if the length was less than 1 mm, a score of 0.5 was given, and the scores were added to obtain the ulcer index of the animal. • Ulcer inhibition rate=(ulcer index of model group-ulcer index of treatment group)/ulcer index of model group*100%; and • Relative ulcer inhibition rate=(ulcer inhibition rate of test compound)/(ulcer inhibition rate of Compound 1).

[2] = test system: aspirin-induced gastric ulcer in rats; test: Aspirin-induced gastric ulcer in rats; assay type: in vivo, SD rats
Procedure: Method: After adaptive feeding, SD rats were divided into three groups (10 rats in each group) by Excel-based complete randomization, namely, a control group, a model group, and a the compound of SEQ ID NO: 1 (0.3 mg/kg) group. After the animals were grouped, they were given corresponding treatments (the control group and the model group were given the same volume of purified water, and the SEQ ID NO: 1 group was given corresponding drug treatment) once a day for 8 consecutive days. On the 7th day after administration, all the animals were fasted for 24 h with free access to water. On the 8th day, except for the control group, the rats in the SEQ ID NO: 1 group and the model group were orally given 250 mg/kg aspirin solution for modeling 30 min after compound administration (or given water). 4 h after modeling, the animals were sacrificed, the cardia was ligated, the pylorus was occluded, and the whole stomach was removed. 8 mL of 1% formaldehyde solution was injected into the gastric lumen, the pylorus was ligated, and the stomach was taken out and immediately immersed in 1% formaldehyde solution for fixation. After 30 min, the stomach was cut open along the greater curvature, the content of the stomach was cleaned off with normal saline, and after the stomach was laid flat, the stomach was observed, and panoramic photos were taken to measure the ulcer area.

[3] = test system: subintestinal vascular branches of zebrafish; test: Repair of simvastatin-induced vascular injury in zebrafish; assay type: in vivo; details: 500 ng/fish intravenous injection, 28° C., 2 days
From the text: Method: The blood vessels of transgenic vascular green fluorescent zebrafish (Fli-1) were labeled by green fluorescent protein, which was clearly visible under a fluorescence microscope (FIG. 9, the dotted frame in FIG. 9 (yellow in the original picture) was the intestinal blood vessel at the analysis site, and the arrow (white in the original picture) pointed to subintestinal vascular branches), and it became a model organism for observing vascular change. Zebrafish Fli-1 was naturally mated in pairs for breeding. Zebrafish Fli-1 was randomly selected and placed in a 6-well plate one day after fertilization, with 30 fish per well (experimental group). The zebrafish in the normal control group were treated with standard dilution water, and each of the other experimental groups was induced with aqueous simvastatin for 3 hours to establish a zebrafish microvascular loss model. After 3 hours, the aqueous solutions in all the groups were replaced with standard dilution water, and simvastatin induction was terminated. […] Ten zebrafish in each group were randomly selected and photographed under the fluorescence microscope. NIS-Elements D 3.20 advanced image processing software was used for analysis and data collection, and the number of subintestinal vascular branches was analyzed.

[4] = Gastric and intestinal stability test of polypeptide samples; assay type: in vitro ADME; details: 37° C., 1 hour, HPLC peak area; for W Retained %: artificial gastric juice (W); for O Retained %: hydrogen peroxide solution (O); for I Retained %: povidone-iodine solution (I); for X Retained %: artificial intestinal juice (X)
Procedure: Method: 1 mg of each of the samples to be tested (Compounds 1, 26, 27 and 28 and EGF) were taken and dissolved in 1 ml of water. 100 ul of sample solution was taken, 900 ul of water was added, and they were uniformly mixed, as a control solution. 100 ul of each sample solution was taken, and 900 ul of artificial gastric juice (W), artificial intestinal juice (X), povidone-iodine solution (I), and hydrogen peroxide solution (O) were respectively added. The solution was placed in a constant temperature water bath at 37° C. for 1 hour, and left to stand for cooling and filtering, as a test solution. The peak areas of the sample before and after treatment were respectively detected by high performance liquid chromatography, and the experimental results were compared based on the peak areas of the samples. The original solution without any treatment after being diluted with water was used as a control, and the changes in the peak areas (contents) of test solutions at corresponding positions were compared and counted.

[5] = test system: ethanol-induced gastric ulcer in mice; test: Ethanol-induced gastric ulcer in mice, administration once a day for 8 days; assay type: in vivo, C57BL/6 mice; details: absolute ethanol, gavage once a day for 8 days, SEQ ID NO: 1 1 mg/kg, teprenone 160 mg/kg, n = 10, x ± s
Procedure: 1. Experimental animal: SPF grade C57BL/6 mice, from Chengdu Yaokang Biotechnology Ltd, animal license number: SCXK (Chuan) 2020-034.
2. Method: After adaptive feeding, the mice were randomly divided into four groups with 10 mice in each group, namely, control group (normal group), model group (modeling with absolute ethanol), positive drug group (teprenone 160 mg/kg) and SEQ ID NO: 1 group (1 mg/kg). After the animals were grouped, the control group and model group were treated with pure water, and the other dosed groups were treated with the corresponding drugs once a day for 8 consecutive days. On the 7th day, after treatment, all the animals were fasted for 24 h with free access to water. […] The stomach was cut open along the greater curvature, the content of the stomach was cleaned off with normal saline, and the ulcer index was calculated after being laid flat. Calculation method for ulcer index: If the length of cord-like injury was greater than 1 mm, the length thereof was measured, with 1 point per millimeter; if the width thereof was greater than 1 mm, the score thereof was doubled according to the number of millimeters of the width; and if the length was less than 1 mm, a score of 0.5 was given, and the scores were added up to obtain the ulcer index of the animal.

Row | Substance | Anti-ulcer activity (mean relative ulcer inhibition rate) [1] | further results
1 | PAAEPV [SEQ ID NO: 34] | / (0< relative ulcer inhibition rate <0.3, denoted as “/” (very low activity)) | –
2 | Val-Pro-Leu-Val (VPLV) [SEQ ID NO: 73] | ++ (relative ulcer inhibition rate 0.6-0.9, denoted as “++”) | –
3 | PAAEPVPLVKQE [SEQ ID NO: 60] | + (relative ulcer inhibition rate 0.3-0.6, denoted as “+”) | –
4 | SEQ ID NO. 1 (PAAEPVPLVKQD) | – | Ulcer area ([2]; rats, 0.3 mg/kg gavage once a day for 8 days, aspirin 250 mg/kg): 20.55 ± 10.45** mm^2
5 | AEPVPL [SEQ ID NO: 30] | +++ (relative ulcer inhibition rate 0.9-1.20, denoted as “+++”) | –
6 | Pro-Ala-Ala-Glu-Pro (PAAEP) [SEQ ID NO: 35] | + (relative ulcer inhibition rate 0.3-0.6, denoted as “+”) | –
7 | PAAEPVPLVKQN [SEQ ID NO: 50] | / (0< relative ulcer inhibition rate <0.3, denoted as “/” (very low activity)) | –
8 | PAAQPVPLVKQD [SEQ ID NO: 10] | ++++ (Relative ulcer inhibition rate >1.20, denoted as “++++”) | –
9 | PAGEPVPLVKQD [SEQ ID NO: 48] | ++ (relative ulcer inhibition rate 0.6-0.9, denoted as “++”) | –
10 | PAAEGVGLVKQD [SEQ ID NO: 8] | + (relative ulcer inhibition rate 0.3-0.6, denoted as “+”) | –
11 | Glu-Pro-Val-Pro-Leu (EPVPL) [SEQ ID NO: 31] | +++ (relative ulcer inhibition rate 0.9-1.20, denoted as “+++”) | –
12 | PAAEPVPL [SEQ ID NO: 26] | +++ (relative ulcer inhibition rate 0.9-1.20, denoted as “+++”) | subintestinal microvascular loss caused by simvastatin / number of subintestinal vascular branches [3]: significantly reverse; W Retained % [4]: 100%; O Retained % [4]: 100% and 102%; I Retained % [4]: 100% and 101%
13 | PAADPVPLVKQD [SEQ ID NO: 11] | ++ (relative ulcer inhibition rate 0.6-0.9, denoted as “++”) | –
14 | PAAEPVPLVK [SEQ ID NO: 3] | +++ (relative ulcer inhibition rate 0.9-1.20, denoted as “+++”) | –
15 | PAAEPVPLVKED [SEQ ID NO: 57] | ++ (relative ulcer inhibition rate 0.6-0.9, denoted as “++”) | –
16 | Ala-Glu-Pro-Val (AEPV) [SEQ ID NO: 45] | − (relative ulcer inhibition rate <0, denoted as “−”) | –
17 | Pro-Val-Pro-Leu (PVPL) [SEQ ID NO: 32] | +++ (relative ulcer inhibition rate 0.9-1.20, denoted as “+++”) | –
18 | PAAEPVPFVKQD [SEQ ID NO: 12] | / (0< relative ulcer inhibition rate <0.3, denoted as “/” (very low activity)) | –
19 | PVPLVKQD [SEQ ID NO: 28] | +++ (relative ulcer inhibition rate 0.9-1.20, denoted as “+++”) | W Retained % [4]: 100% and 96%; X Retained % [4]: 0%; O Retained % [4]: 100% and 99%; I Retained % [4]: 100% and 99%
20 | PIAEPVPLVKQD [SEQ ID NO: 56] | − (relative ulcer inhibition rate <0, denoted as “−”) | –
21 | Ala-Glu-Pro-Val-Pro (AEPVP) [SEQ ID NO: 44] | + (relative ulcer inhibition rate 0.3-0.6, denoted as “+”) | –
22 | EPVPLVKQD [SEQ ID NO: 38] | +++ (relative ulcer inhibition rate 0.9-1.20, denoted as “+++”) | –
23 | teprenone | – | Ulcer index [5]: 13.42 ± 7.61
24 | AEPVPLVKQD [SEQ ID NO: 27] | +++ (relative ulcer inhibition rate 0.9-1.20, denoted as “+++”) | W Retained % [4]: 100% and 97%; X Retained % [4]: 0%; O Retained % [4]: 100% and 101%; I Retained % [4]: 100%
25 | PAAEPVPLVKQD [SEQ ID NO: 1, Pro-Ala-Ala-Glu-Pro-Val-Pro-Leu-Val-Lys-Gln-Asp] | – | weight change ([2]; 0.3 mg/kg oral gavage once a day for 8 consecutive days): no obvious effects
26 | PAAEPVPLIKQD [SEQ ID NO: 64] | + (relative ulcer inhibition rate 0.3-0.6, denoted as “+”) | –
27 | PAAEPVPLVKND [SEQ ID NO: 58] | / (0< relative ulcer inhibition rate <0.3, denoted as “/” (very low activity)) | –
28 | PAAVPVPLVKQD [SEQ ID NO: 67] | + (relative ulcer inhibition rate 0.3-0.6, denoted as “+”) | –
